The conditions of series [1]: cited from earlier work.
The nature of series [2]: Dissolution test of loperamide samples, USP 24 paddle method, HPLC. The format is physicochemical. To be noted: 37 °C, paddle 100 rpm. On the procedure: Four different samples containing loperamide (commercially available from Janssen Pharmaceutica, Beerse, Belgium) were prepared and their dissolution profiles were measured. 1 g/l of loperamide and 10 g/l of Aerosil 380 (a silicate commercially available from Degussa, Dusseldorf, Germany) were mixed with bi-distilled water in a mortar. An untreated sample was prepared by fast solidification of part of this suspension in a pre-cooled ball that was kept in liquid nitrogen followed by freeze-drying. […]
Dissolution experiments were performed in a SR8 PLUS Hanson dissolution test station (commercially available from Chatsworth, United States) while using the USP 24 method (paddle method, 100 rpm). […] The corresponding concentrations were determined from the calibration curve with HPLC.
The HPLC system used for this determination consisted of LiChroGraph® L-7100 HPLC pump, an auto-sampler model L-7200 equipped with a 100 μl loop, a UV detector model L-7400 set at 220 nm, and an Interface D-7000, all from commercially available from Merck-Hitachi (Darmstadt, Germany). UV signals were monitored and peaks were integrated using the D-7000 HSM software. […]

The text below walks through data of patent US7666307B2, “Particle size reduction of bioactive compounds” (K.U. Leuven Research & Development, priority 2003, dated 2010).

As for `C#C[C@]1(O)CC[C@H]2[C@@H]3CCC4=Cc5oncc5C[C@]4(C)[C@H]3CC[C@@]21C` [danazol], the “size to which 10% of the particles are reduced” value in series [1] (dispersion refined by electric field, U.S. Pat. No. 5,503,723) is reported as 180 nm.

For the compound `CN(C)C(=O)C(CCN1CCC(O)(c2ccc(Cl)cc2)CC1)(c1ccccc1)c1ccccc1` [loperamide], the “dissolution rate versus corresponding untreated sample” value in series [2] (magnetic treatment in the presence of a silicate (Aerosil)) and in series [2] (magnetic treatment in the presence of a surfactant (Tween 80)) was “significantly increased” in each case. `CCCCNc1ccc(C(=O)OCCN(C)C)cc1` [tetracaine]: the average particle diameter in series [1] (aqueous nanosuspensions, U.S. Pat. No. 5,858,410) is 91 nm.
